Patent US20240131155A1, “T CELLS FOR USE IN THERAPY” (Erasmus University Medical Center Rotterdam, priority 2021, published 2024)
Like-named read-outs stand apart in the source and are kept apart here. Peptide text beside a SMILES is read from it.

What was measured:
HLA-A2 = target: T1, HLA-A2 (Homo sapiens, UniProt P04439, D140Y/D185E/D98H/E176V/E277Q/G131W/G231S/I119V/I121R/I166T/I218V/L300P/L318F/N151K/N90K/P208A/P217A/Q86G/Q94H/R138H/R169H/T345S); assay: HLA-A2 stabilization assay using T2 cells; assay type: binding
T1 construct: The HLA-A2 stabilization assay was performed using T2 cells; endogenous in cells; host or cells: T2 cells (LCLxT lymphoblastoid hybrid cell line 0.1743CEM.T2)

peptide:MHC = peptide:MHC (Homo sapiens, UniProt P04439, D140Y/D185E/D98H/E176V/E277Q/G131W/G231S/I119V/I121R/I166T/I218V/N151K/N90K/P208A/P217A/Q86G/Q94H/R138H/R169H); assay: TCR gene transfer into healthy donor T cells, surface expression by pMHC staining; assay type: cell-based; conditions: Table 4; T cells transduced with TCR specific for the epitope
Source text: (§1) Identified TCRα and TCRβ genes were codon optimized (GeneArt, Regensburg, Germany) and cloned into the pMP71 vector (a kind gift of prof. Wolfgang Uckert, MDC, Berlin, Germany) using a TCRβ-2A-TCRα cassette that was flanked by NotI and EcoRI restriction sites. Upon activation with anti-CD3 mAb OKT3, PBMCs from healthy donors were transduced with TCR-encoding retroviruses (pMP71) or empty vector that were produced by a co-culture of 293T and Phoenix-Ampho packaging cells, as described previously in Lamers et al., Cancer Gene Ther.;13(5):503-509 (2006), doi:10.1038/sj.cgt.7700916, and Straetemans G, Clin Dev Immunol, 2012. Staining for surface-expressed TCR transgenes was performed as described above (FIG. 5A,B).
as §1, with “TCRα” for “Identified TCRα”, “TCR13-2A-TCRα” for “TCRβ-2A-TCRα”, “2012.” for “2012. Staining for surface-expressed TCR transgenes was performed as described above (FIG. 5A,B).”
Staining for surface-expressed TCR transgenes was performed as described above. […] Note that for a single epitope (EVI; SEQ ID NO:24) pMHC complexes were insensitive to detect TCR T cells and replaced by stainings with antibodies directed against TCR-Vb7.1 and CD137. The expression of CD137 was measured following 48 h stimulation with EVI epitope-loaded BSM cells, and threshold for inclusion again being expression in more than 5% of cells in the CD3-positive cell population in at least 2 donors.

[1] = Table 2 (Example 1), EC50 of peptide titration on T2 cells, read-out: Affinity for HLA A2:01
[2] = Table 4 (Examples 1 and 2), EC50 of peptide titration on T2 cells, read-out: Affinity for HLA.A2.01

SMILES | EC50 (HLA-A2; [1]) | EC50 (HLA-A2; [2]) | Surface expression % pMHC+ in CD3+ (peptide:MHC) | EC50 (HLA-A2; Example 1, top-ranked epitopes, read-out: EC50 (HLA-A2 binding))
CC[C@H](C)[C@H](NC(=O)[C@H](Cc1ccc(O)cc1)NC(=O)[C@@H](NC(=O)[C@H](Cc1ccc(O)cc1)NC(=O)[C@H](CC(C)C)NC(=O)[C@@H](N)Cc1ccccc1)[C@@H](C)O)C(=O)N[C@@H](C)C(=O)N[C@@H](CCCCN)C(=O)N[C@H](C(=O)O)C(C)C (H-FLYTYIAKV-OH; N-terminus and C-terminus assumed) | 10.9 µM | 8.11 µM | 33.2% | –
CC[C@H](C)[C@H](NC(=O)[C@H](Cc1ccc(O)cc1)NC(=O)[C@@H](NC(=O)[C@H](Cc1ccc(O)cc1)NC(=O)[C@H](CC(C)C)NC(=O)[C@@H](N)Cc1ccccc1)[C@@H](C)O)C(=O)N[C@@H](C)C(=O)N[C@@H](CCC(=O)O)C(=O)N[C@H](C(=O)O)C(C)C (H-FLYTYIAEV-OH; N-terminus and C-terminus assumed) | – | 21.1 µM | 5.02% | –
CSCC[C@H](NC(=O)[C@H](CCC(N)=O)NC(=O)[C@H](C)N)C(=O)N[C@@H](Cc1c[nH]c2ccccc12)C(=O)N[C@@H](CCCCN)C(=O)N[C@H](C(=O)N[C@H](C(=O)N[C@@H](CC(N)=O)C(=O)N[C@@H](CC(C)C)C(=O)O)C(C)C)C(C)C (H-AQMWKVVNL-OH; N-terminus and C-terminus assumed) | 11.4 µM | 10.5 µM | 49.7% | –
CC[C@H](C)[C@H](NC(=O)[C@H](Cc1ccc(O)cc1)NC(=O)[C@H](CC(N)=O)NC(=O)[C@H](CC(C)C)NC(=O)[C@@H](N)CCSC)C(=O)N[C@@H](CCC(=O)O)C(=O)N[C@@H](CCC(N)=O)C(=O)N[C@@H](CCC(=O)O)C(=O)N[C@H](C(=O)O)C(C)C (H-MLNYIEQEV-OH; N-terminus and C-terminus assumed) | 6.56 µM | 4.82 µM | 49.7% | 6.6 µM
